# In ChEMBL document CHEMBL3632469, “Discovery of dihydroquinazolinone derivatives as potent, selective, and CNS-penetrant M(1) and M(4) muscarinic acetylcholine receptors agonists” (Bioorg Med Chem Lett, 2015):
# What was measured:
# Assay type in all cases: functional, cell-based
# [1] = target: T1, Muscarinic acetylcholine receptor M1 (Homo sapiens) (UniProt P11229); test: Agonist activity at human muscarinic M1 acetylcholine receptor expressed in CHO cells assessed as calcium mobilization at 0.3 uM by FLIPR assay
# T1 sequence (whole entry): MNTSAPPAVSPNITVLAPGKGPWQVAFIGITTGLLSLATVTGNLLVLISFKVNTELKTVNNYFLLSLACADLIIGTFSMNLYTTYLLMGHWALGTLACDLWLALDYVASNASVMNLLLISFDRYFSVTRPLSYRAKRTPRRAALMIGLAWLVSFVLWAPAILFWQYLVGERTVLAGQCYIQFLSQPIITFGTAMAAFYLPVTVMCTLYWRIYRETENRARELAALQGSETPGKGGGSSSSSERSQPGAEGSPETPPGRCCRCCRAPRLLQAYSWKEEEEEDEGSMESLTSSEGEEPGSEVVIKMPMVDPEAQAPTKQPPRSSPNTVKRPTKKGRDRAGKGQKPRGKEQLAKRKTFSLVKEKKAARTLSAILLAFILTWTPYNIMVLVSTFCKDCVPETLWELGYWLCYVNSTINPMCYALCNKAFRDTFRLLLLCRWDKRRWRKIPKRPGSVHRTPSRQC
# [2] = target: T2, Muscarinic acetylcholine receptor M4 (Homo sapiens) (UniProt P08173); test: Partial agonist activity at human muscarinic M4 acetylcholine receptor expressed in CHO cells co-expressing Galpha16 assessed as calcium mobilization at 0.3 uM by FLIPR assay
# T2 sequence (whole entry): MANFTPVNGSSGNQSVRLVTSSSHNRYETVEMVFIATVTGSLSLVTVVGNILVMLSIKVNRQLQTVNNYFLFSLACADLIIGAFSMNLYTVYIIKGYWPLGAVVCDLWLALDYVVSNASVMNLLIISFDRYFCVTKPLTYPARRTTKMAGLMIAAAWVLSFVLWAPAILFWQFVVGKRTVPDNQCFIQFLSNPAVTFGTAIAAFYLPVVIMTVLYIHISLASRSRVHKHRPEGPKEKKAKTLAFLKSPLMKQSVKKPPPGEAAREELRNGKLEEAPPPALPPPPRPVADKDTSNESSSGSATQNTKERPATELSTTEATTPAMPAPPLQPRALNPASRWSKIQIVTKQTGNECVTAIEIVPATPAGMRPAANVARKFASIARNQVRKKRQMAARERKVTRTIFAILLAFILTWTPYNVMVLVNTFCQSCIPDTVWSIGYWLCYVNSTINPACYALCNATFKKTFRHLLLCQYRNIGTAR
# [3] = target: T3, Muscarinic acetylcholine receptor M2 (Homo sapiens) (UniProt P08172); test: Agonist activity at human muscarinic M2 acetylcholine receptor expressed in CHO cells co-expressing Galpha16 assessed as calcium mobilization at 0.3 uM by FLIPR assay
# T3 sequence (whole entry): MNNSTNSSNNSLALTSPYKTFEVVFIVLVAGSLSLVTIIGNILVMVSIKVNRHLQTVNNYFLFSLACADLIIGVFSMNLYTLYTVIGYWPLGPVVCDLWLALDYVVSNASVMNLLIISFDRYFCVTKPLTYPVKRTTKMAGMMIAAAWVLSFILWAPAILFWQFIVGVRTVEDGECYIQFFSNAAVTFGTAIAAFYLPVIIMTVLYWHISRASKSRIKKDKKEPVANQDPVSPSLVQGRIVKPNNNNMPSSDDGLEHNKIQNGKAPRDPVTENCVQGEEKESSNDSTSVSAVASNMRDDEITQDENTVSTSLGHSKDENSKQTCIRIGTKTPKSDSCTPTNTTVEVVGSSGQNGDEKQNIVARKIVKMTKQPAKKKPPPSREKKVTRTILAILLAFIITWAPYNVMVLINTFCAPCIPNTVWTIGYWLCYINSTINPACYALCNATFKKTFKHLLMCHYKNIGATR
# [4] = target: Muscarinic acetylcholine receptor M3 (Homo sapiens) (UniProt P20309); test: Agonist activity at human muscarinic M3 acetylcholine receptor expressed in CHO cells assessed as calcium mobilization at 0.3 uM by FLIPR assay
# Sequence of Muscarinic acetylcholine receptor M3 (Homo sapiens) (P20309 whole entry, looked up): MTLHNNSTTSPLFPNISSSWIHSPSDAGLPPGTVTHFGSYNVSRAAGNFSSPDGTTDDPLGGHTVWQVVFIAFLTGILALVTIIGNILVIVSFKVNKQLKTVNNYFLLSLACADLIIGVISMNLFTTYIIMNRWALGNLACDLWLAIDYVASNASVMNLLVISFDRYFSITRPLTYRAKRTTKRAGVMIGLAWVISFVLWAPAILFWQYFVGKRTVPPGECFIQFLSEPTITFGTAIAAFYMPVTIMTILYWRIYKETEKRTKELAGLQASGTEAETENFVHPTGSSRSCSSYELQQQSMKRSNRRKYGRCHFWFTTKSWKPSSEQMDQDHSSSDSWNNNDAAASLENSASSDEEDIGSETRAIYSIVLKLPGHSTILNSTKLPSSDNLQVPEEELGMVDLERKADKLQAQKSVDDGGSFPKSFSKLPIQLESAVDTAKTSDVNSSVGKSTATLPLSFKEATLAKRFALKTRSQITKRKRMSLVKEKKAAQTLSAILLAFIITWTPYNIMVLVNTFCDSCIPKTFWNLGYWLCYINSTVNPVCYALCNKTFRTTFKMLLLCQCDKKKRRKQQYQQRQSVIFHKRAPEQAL
# [5] = target: T2, Muscarinic acetylcholine receptor M4 (Homo sapiens); test: Partial agonist activity at human muscarinic M4 acetylcholine receptor expressed in CHO cells co-expressing Galpha16 assessed as calcium mobilization at 30 uM by FLIPR assay
# [6] = target: T4, Muscarinic acetylcholine receptor M5 (Homo sapiens) (UniProt P08912); test: Agonist activity at human muscarinic M5 acetylcholine receptor expressed in CHO cells assessed as calcium mobilization at 10 uM by FLIPR assay
# T4 sequence (whole entry): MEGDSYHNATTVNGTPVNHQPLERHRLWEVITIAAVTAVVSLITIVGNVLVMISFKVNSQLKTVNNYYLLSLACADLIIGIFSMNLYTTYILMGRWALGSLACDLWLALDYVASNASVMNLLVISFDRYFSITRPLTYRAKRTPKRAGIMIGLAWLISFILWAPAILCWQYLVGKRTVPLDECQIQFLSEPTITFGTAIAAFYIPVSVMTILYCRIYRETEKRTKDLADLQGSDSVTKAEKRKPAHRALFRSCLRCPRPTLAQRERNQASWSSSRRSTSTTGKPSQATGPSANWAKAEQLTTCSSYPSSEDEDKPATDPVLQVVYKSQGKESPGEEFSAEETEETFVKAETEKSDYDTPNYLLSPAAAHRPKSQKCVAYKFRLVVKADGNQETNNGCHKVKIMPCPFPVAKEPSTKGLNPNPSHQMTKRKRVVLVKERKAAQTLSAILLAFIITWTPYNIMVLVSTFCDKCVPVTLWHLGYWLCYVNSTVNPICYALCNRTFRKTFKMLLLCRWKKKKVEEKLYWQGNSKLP
Activity [1],Activity [2],Activity [3],Activity [4],Activity [5],Activity [6],Compound
86%,114%,66%,21%,–,31%,CCOC(=O)N1CCC(N2CCC(N3Cc4ccccc4NC3=O)CC2)CC1
95%,91%,53%,2%,–,3%,CCOC(=O)N1CCC(CN2CC[C@@H](N3Cc4ccccc4NC3=O)C2)CC1
82%,66%,39%,7%,–,–,CCOC(=O)N1CCC(CN2CCC(N3Cc4ccccc4NC3=O)CC2)CC1

# The next lines start with the molecule.
Compound,Activity [1],Activity [2],Activity [3],Activity [4],Activity [5],Activity [6]
CCOC(=O)N1[C@@H]2CC[C@H]1C[C@H](CN1CC(N3Cc4ccccc4NC3=O)C1)C2,87%,64%,12%,1%,65%,–
CCOC(=O)N1CCC(CN2CC(N3Cc4ccccc4NC3=O)C2)CC1,105%,115%,17%,1%,–,–
CCOC(=O)N1CCC(CN2CC[C@H](N3Cc4ccccc4NC3=O)C2)CC1,62%,30%,2%,3%,–,–
